Converted amounts (≈) assume the structure as drawn.
Experiments:
Mycobacterium avium = test: Antimycobacterial activity against Mycobacterium avium 101 by CLSI method; format: functional
[1] = test system: Mycobacterium intracellulare; test: Antimycobacterial activity against Mycobacterium intracellulare 1956 by CLSI method; format: functional
[2] = test system: Mycobacteroides abscessus; test: Antimycobacterial activity against Mycobacterium abscessus 1 by CLSI method; format: functional
[3] = test system: Mycobacteroides abscessus; test: Antimycobacterial activity against Mycobacterium abscessus 21 by CLSI method; format: functional
[4] = test system: Mycobacteroides abscessus; test: Antimycobacterial activity against Mycobacterium abscessus 79 by CLSI method; format: functional
[5] = test system: Mycobacteroides abscessus; test: Antimycobacterial activity against Mycobacterium abscessus 103 by CLSI method; format: functional
[6] = test system: Mycobacteroides abscessus; test: Antimycobacterial activity against Mycobacterium massiliense 119 by CLSI method; format: functional, Mycobacterium abscessus subsp. massiliense
Mycobacteroides chelonae = test: Antimycobacterial activity against Mycobacterium chelonae 93 by CLSI method; format: functional
[7] = test system: Mycolicibacterium fortuitum; test: Antimycobacterial activity against Mycobacterium fortuitum 41 by CLSI method; format: functional
[8] = test system: Mycolicibacterium peregrinum; test: Antimycobacterial activity against Mycobacterium peregrinum ATCC 700686 by CLSI method; format: functional
[9] = test system: Mycobacteroides abscessus; test: Antimycobacterial activity against Mycobacterium abscessus ATCC 19977 by CLSI method; format: functional
[10] = test system: Mycobacterium tuberculosis; test: Antimycobacterial activity against Mycobacterium tuberculosis H37Rv MC2 6206 by CLSI method; format: functional

Structure (SMILES)	MIC (Mycobacterium avium) [µg/mL]	MIC [1] [µg/mL]	MIC [2] [µg/mL]	MIC [3] [µg/mL]	MIC [4] [µg/mL]	MIC [5] [µg/mL]	MIC [6] [µg/mL]	MIC (Mycobacteroides chelonae) [µg/mL]	MIC [7] [µg/mL]	MIC [8] [µg/mL]	MIC [9] [µg/mL]	MIC [10] [µg/mL]
Cc1cc(C)c2sc(NC(=O)C3CC(C)CC(C)(C)C3)nc2c1 (centres undefined)	> 64	> 64	0.5 (≈ 1.51 µM)	0.25 (≈ 0.756 µM)	0.25 (≈ 0.756 µM)	0.25 (≈ 0.756 µM)	0.5 (≈ 1.51 µM)	0.25 (≈ 0.756 µM)	0.5 (≈ 1.51 µM)	0.25 (≈ 0.756 µM)	–	–
CC1(C)CCC(C(=O)Nc2nc3ccc(C(F)(F)F)cc3s2)CC1	64 (≈ 180 µM)	64 (≈ 180 µM)	–	–	–	–	–	–	–	–	> 64	–
CC1CC(C(=O)Nc2nc3ccccc3s2)CC(C)(C)C1 (centres undefined)	8 (≈ 26.5 µM)	8 (≈ 26.5 µM)	2 (≈ 6.61 µM)	2 (≈ 6.61 µM)	1 (≈ 3.31 µM)	1 (≈ 3.31 µM)	2 (≈ 6.61 µM)	1 (≈ 3.31 µM)	1 (≈ 3.31 µM)	0.5 (≈ 1.65 µM)	–	8 (≈ 26.5 µM)
CC12CCCC(C(=O)Nc3nc4ccc(Cl)cc4s3)(CCC1)C2	8 (≈ 22.9 µM)	4 (≈ 11.5 µM)	0.25 (≈ 0.717 µM)	0.12 (≈ 0.344 µM)	0.12 (≈ 0.344 µM)	0.12 (≈ 0.344 µM)	0.12 (≈ 0.344 µM)	0.25 (≈ 0.717 µM)	0.25 (≈ 0.717 µM)	0.12 (≈ 0.344 µM)	–	0.5 (≈ 1.43 µM)
CC12CCCC(C(=O)Nc3nc4c(F)c(F)c(F)cc4s3)(CCC1)C2	> 8	8 (≈ 21.7 µM)	0.25 (≈ 0.679 µM)	0.12 (≈ 0.326 µM)	0.12 (≈ 0.326 µM)	0.12 (≈ 0.326 µM)	0.12 (≈ 0.326 µM)	0.12 (≈ 0.326 µM)	0.5 (≈ 1.36 µM)	0.06 (≈ 0.163 µM)	–	≤ 0.12
CC1CC(C(=O)Nc2nc3c(F)cccc3s2)CC(C)(C)C1 (centres undefined)	8 (≈ 25 µM)	8 (≈ 25 µM)	2 (≈ 6.24 µM)	1 (≈ 3.12 µM)	2 (≈ 6.24 µM)	–	1 (≈ 3.12 µM)	2 (≈ 6.24 µM)	0.5 (≈ 1.56 µM)	2 (≈ 6.24 µM)	–	4 (≈ 12.5 µM)
CC12CCCC(C(=O)Nc3nc4ccc(Br)cc4s3)(CCC1)C2	8 (≈ 20.3 µM)	4 (≈ 10.2 µM)	0.25 (≈ 0.636 µM)	0.12 (≈ 0.305 µM)	0.12 (≈ 0.305 µM)	0.12 (≈ 0.305 µM)	0.12 (≈ 0.305 µM)	0.25 (≈ 0.636 µM)	0.5 (≈ 1.27 µM)	0.12 (≈ 0.305 µM)	–	–
CC1CC(C(=O)Nc2nc3cc(C(F)(F)F)ccc3s2)CC(C)(C)C1 (centres undefined)	> 64	> 64	–	0.25 (≈ 0.675 µM)	0.25 (≈ 0.675 µM)	0.5 (≈ 1.35 µM)	0.5 (≈ 1.35 µM)	0.25 (≈ 0.675 µM)	0.25 (≈ 0.675 µM)	0.12 (≈ 0.324 µM)	–	≤ 0.12
CC1CC(C(=O)Nc2nc3cc(F)ccc3s2)CC(C)(C)C1 (centres undefined)	16 (≈ 49.9 µM)	16 (≈ 49.9 µM)	2 (≈ 6.24 µM)	0.5 (≈ 1.56 µM)	2 (≈ 6.24 µM)	–	2 (≈ 6.24 µM)	2 (≈ 6.24 µM)	2 (≈ 6.24 µM)	4 (≈ 12.5 µM)	1 (≈ 3.12 µM)	–
CC1CCC(C(=O)Nc2nc3ccc(C(F)(F)F)cc3s2)CC1 (centres undefined)	> 64	> 64	–	–	–	–	–	–	–	–	64 (≈ 187 µM)	–
CC1CC(C(=O)Nc2nc3cc(F)cc(F)c3s2)CC(C)(C)C1 (centres undefined)	8 (≈ 23.6 µM)	8 (≈ 23.6 µM)	0.5 (≈ 1.48 µM)	0.25 (≈ 0.739 µM)	0.25 (≈ 0.739 µM)	0.25 (≈ 0.739 µM)	0.25 (≈ 0.739 µM)	0.25 (≈ 0.739 µM)	0.25 (≈ 0.739 µM)	0.12 (≈ 0.355 µM)	–	–
CC1CC(C(=O)Nc2nc3cc(Cl)cc(Cl)c3s2)CC(C)(C)C1 (centres undefined)	8 (≈ 21.5 µM)	16 (≈ 43.1 µM)	–	0.25 (≈ 0.673 µM)	0.12 (≈ 0.323 µM)	0.5 (≈ 1.35 µM)	0.25 (≈ 0.673 µM)	0.12 (≈ 0.323 µM)	0.25 (≈ 0.673 µM)	0.12 (≈ 0.323 µM)	–	1 (≈ 2.69 µM)
CC1CCCC(C(=O)Nc2nc3ccc(C(F)(F)F)cc3s2)C1 (centres undefined)	16 (≈ 46.7 µM)	16 (≈ 46.7 µM)	4 (≈ 11.7 µM)	2 (≈ 5.84 µM)	2 (≈ 5.84 µM)	–	2 (≈ 5.84 µM)	1 (≈ 2.92 µM)	2 (≈ 5.84 µM)	1 (≈ 2.92 µM)	–	16 (≈ 46.7 µM)
CC1CC(C(=O)Nc2nc3cccc(F)c3s2)CC(C)(C)C1 (centres undefined)	8 (≈ 25 µM)	16 (≈ 49.9 µM)	0.5 (≈ 1.56 µM)	0.25 (≈ 0.78 µM)	0.25 (≈ 0.78 µM)	0.5 (≈ 1.56 µM)	0.25 (≈ 0.78 µM)	0.5 (≈ 1.56 µM)	0.12 (≈ 0.374 µM)	0.06 (≈ 0.187 µM)	–	1 (≈ 3.12 µM)
CC12CCCC(C(=O)Nc3nc4cc(F)cc(F)c4s3)(CCC1)C2	4 (≈ 11.4 µM)	4 (≈ 11.4 µM)	0.12 (≈ 0.342 µM)	0.06 (≈ 0.171 µM)	0.06 (≈ 0.171 µM)	0.06 (≈ 0.171 µM)	0.25 (≈ 0.713 µM)	0.06 (≈ 0.171 µM)	0.25 (≈ 0.713 µM)	0.06 (≈ 0.171 µM)	–	–
CC1(C)CCCC(C(=O)Nc2nc3ccc(C(F)(F)F)cc3s2)C1 (centres undefined)	> 64	> 64	> 64	64 (≈ 180 µM)	64 (≈ 180 µM)	–	0.5 (≈ 1.4 µM)	0.25 (≈ 0.701 µM)	> 64	64 (≈ 180 µM)	–	–

— ChEMBL document CHEMBL4265897, “Discovery of benzothiazole amides as potent antimycobacterial agents” (Bioorg Med Chem Lett, 2018)
